Results published in US6346543B1, “Use of a taxoid to treat abnormal cell proliferation in the brain” (priority 1998, dated 2002).
Where “and” joins values, the source holds several entries; their conditions need not be identical. Equal entries are not always repeated.

Tests used:
[1] = tested on: intracranially implanted human glioblastoma U251; assay: Antitumor activity against intracranially implanted U251 glioblastoma in NCr-nu mice (RP-36); assay type: in vivo; conditions: for DAYS OF DEATH: individual animals
Protocol: The treatment schedule of the intracranially implanted U251 glioblastoma cells was iv, once daily, every sixth day for three treatments (q6d×3), beginning on day four post-implant. […] For the intracranially implanted studies, the compounds were evaluated based on their ability to increase the life span of the animals. The positive control used for both of these tumor models was nitrosourea.
The oversight committee was the Southern Research Institutional Animal Care and Use Committee; the protocol used was IACUC No. 96-8-50.
(§1) Product (Ia) was prepared in 5% ethanol, 5% tween 80, 90% D5W
(§2) Product (Ia) was administered in 0.4 ml/mouse based on a total body weight average.
(§3) Nitrosourea was administered 0.1 ml/10 g of body weight.
(§4) Any intracranially implanted animal that appeared to be moribund was euthanized for humane purposes. Since efficacy studies fall within this category of basic research, experiment termination was based on resultants that were determined to be optimal.
Six to eight week old athymic NCr-nu female mice were used for the intracranially implanted U251 trials.
The cells were injected into the cerebrum to the right of the midline with a 25 gauge, ⅜ inch, stainless steel needle. Cultured cells were used for the U251 experiment (RP-36). The treatment schedule was q6d×3, iv, beginning on day four, post-implant. […] The treatment schedule was q4d×3, iv, beginning on day two, post-implant. Nitrosourea was given in each experiment for comparative purposes because of its known activity against CNS tumors.

[2] = tested on: intracranially implanted human glioblastoma SF-295; assay: Antitumor activity against intracranially implanted SF-295 glioblastoma in NCr-nu mice (RP-38); assay type: in vivo; conditions: for DAYS OF DEATH: individual animals
Text: Four studies were initiated to evaluate the response of U251 and SF-295 glioblastomas to treatment with product (Ia). In the two studies, U251 and SF-295 glioblastomas were initiated from intracranially implanted cells at a volume of 10^6 cells per mouse. The treatment schedule of the intracranially implanted U251 glioblastoma cells was iv, once daily, every sixth day for three treatments (q6d×3), beginning on day four post-implant. The treatment schedule of the intracranially implanted SF-295 glioblastoma cells was iv, once daily, every fourth day for three treatments (q4d×3), beginning on day two post-implant. For the intracranially implanted studies, the compounds were evaluated based on their ability to increase the life span of the animals. The positive control used for both of these tumor models was nitrosourea.
In these experiments, general DCTD, NCI techniques and procedures for in vivo efficacy studies were modified for special application (In Vivo Cancer Models, NIH Publication No. 84-2635, 1984). These studies were conducted in approved facilities (AAALAC Registration No. 000643, AALAS Membership No. 840723001, USDA Registration No. 64-R-001, OPPR, PHS, NIH, AWA, Assurance No. A3046-01). These facilities are ISO 9001 certified. The oversight committee was the Southern Research Institutional Animal Care and Use Committee; the protocol used was IACUC No. 96-8-50.
as §1
Nitrosourea was prepared in 2% ethanol, 98% physiological saline.
as §2, §3, §4
Six to eight week old athymic NCr-nu female mice were used for the intracranially implanted U251 trials. Six to eight week old athymic NCr-nu male mice were used for the intracranially implanted SF-295 trials.
As previously mentioned, this experiment was designed to evaluate the activity of product (Ia) against intracranially U251 and SF-295 glioblastomas in athymic MCr-nu mice. The dosages for product (Ia) were 30, 20 and 13.4 mg/kg/dose. For the two intracranially implanted experiments, cells were prepared at a concentration of 3.33×10^7 cells per ml of media and injected at a volume of 0.03 ml per mouse. The cells were injected into the cerebrum to the right of the midline with a 25 gauge, ⅜ inch, stainless steel needle. Cultured cells were used for the U251 experiment (RP-36). The treatment schedule was q6d×3, iv, beginning on day four, post-implant. A tumor brei, made from solid tumor, was used for the SF-295 experiment (RP-38). The treatment schedule was q4d×3, iv, beginning on day two, post-implant. Nitrosourea was given in each experiment for comparative purposes because of its known activity against CNS tumors. The dosages were 27, 18 and 12 mg/kg/dose and the treatment schedule was the same as the treatment schedule for product (Ia) in each experiment.

[3] = 18.0 mg/kg/dose IV Q6D×3(4), listed as nitrosourea
[4] = 18.0 mg/kg/dose IV Q4D×3(2), listed as nitrosourea
[5] = 27.0 mg/kg/dose IV Q4D×3(2), listed as nitrosourea

NC(=O)NN=O [Nitrosourea, reference compound]
122-DAY SURV./TOTAL ([1]; 12.0 mg/kg/dose IV Q6D×3(4)): 0/10 | % ILS ([1]; 12.0 mg/kg/dose IV Q6D×3(4)): +51% | MEDIAN DAY OF DEATH ([1]; 12.0 mg/kg/dose IV Q6D×3(4)): 51.5 days | DAYS OF DEATH ([1]; 12.0 mg/kg/dose IV Q6D×3(4)): 69 day (2×) and 80 day and 41 day and 45 day and 49 day (3×) and 54 day and 66 day | % ILS ([1]; 12.0 mg/kg/dose IV Q6D×3(4), listed as nitrosourea): 51% | 122-DAY SURV./TOTAL ([1]; 18.0 mg/kg/dose IV Q6D×3(4)): 7/10 | % ILS ([1]; 18.0 mg/kg/dose IV Q6D×3(4)): +205% | MEDIAN DAY OF DEATH ([1]; 18.0 mg/kg/dose IV Q6D×3(4)): 104.0 days | DAYS OF DEATH ([1]; 18.0 mg/kg/dose IV Q6D×3(4)): 94 day and 104 day (2×) | 122-DAY SURV./TOTAL [1, 3]: seven of ten | % ILS [1, 3]: 205% | 122-DAY SURV./TOTAL ([1]; 27.0 mg/kg/dose IV Q6D×3(4)): 10/10 | 122-DAY SURV./TOTAL ([1]; 27.0 mg/kg/dose IV Q6D×3(4), listed as nitrosourea): ten of ten | MTD ([1]; iv q6d×3, U251 experiment RP-36): 27 mg/kg/dose | 68 DAY SURV./TOTAL ([2]; 12.0 mg/kg/dose IV Q4D×3(2)): 0/10 | % ILS ([2]; 12.0 mg/kg/dose IV Q4D×3(2)): +106% | MEDIAN DAY OF DEATH ([2]; 12.0 mg/kg/dose IV Q4D×3(2)): 33.0 days | DAYS OF DEATH ([2]; 12.0 mg/kg/dose IV Q4D×3(2)): 33 day (5×) and 40 day and 22 day and 23 day and 26 day (2×) | % ILS ([2]; 12.0 mg/kg/dose IV Q4D×3(2), listed as nitrosourea): 106% | 68 DAY SURV./TOTAL ([2]; 18.0 mg/kg/dose IV Q4D×3(2)): 1/10 | % ILS ([2]; 18.0 mg/kg/dose IV Q4D×3(2)): +131% | MEDIAN DAY OF DEATH ([2]; 18.0 mg/kg/dose IV Q4D×3(2)): 37.0 days | DAYS OF DEATH ([2]; 18.0 mg/kg/dose IV Q4D×3(2)): 40 day and 41 day and 33 day and 34 day (2×) and 35 day and 37 day (3×) | 68 DAY SURV./TOTAL [2, 4]: one 68-day survivor out of ten animals | % ILS [2, 4]: 131% | 68 DAY SURV./TOTAL ([2]; 27.0 mg/kg/dose IV Q4D×3(2)): 2/10 | % ILS ([2]; 27.0 mg/kg/dose IV Q4D×3(2)): +50% | MEDIAN DAY OF DEATH ([2]; 27.0 mg/kg/dose IV Q4D×3(2)): 24.0 days | DAYS OF DEATH ([2]; 27.0 mg/kg/dose IV Q4D×3(2)): 64 day and 15 day and 16 day (2×) and 19 day and 29 day and 37 day and 56 day | 68 DAY SURV./TOTAL [2, 5]: two 68-day survivors out of ten animals | % ILS [2, 5]: 50% | MTD ([2]; in vivo, iv): 27 mg/kg/dose
